Measurements from patent US11179348B2, “Combination comprising pterostilbene for the treatment of cancer” (FUNDACIÓN UNIVERSIDAD CATÓLICA DE VALENCIA SAN VICENTE …, priority 2015, dated 2021).
Read-outs that look alike come from different tables or passages of the source. Marks after values point to notes of the source that are not given here.

Assays:
[1] = tested on: MeWo melanoma; assay: In vivo growth of MeWo melanoma xenografts in nu/nu mice; design: species or system human
[2] = tested on: AsPC-1 pancreatic cancer; assay: In vivo growth of AsPC-1 pancreatic cancer xenografts; design: species or system human; conditions: AsPC-1-RFP; 28 days after inoculation; Pter and/or CRC
[3] = tested on: HT-29 colorectal carcinoma; assay: In vivo growth of HT-29 colorectal cancer xenografts; design: species or system human; conditions: HT-29, day 21
[4] = tested on: BxPC-3 pancreatic cancer cells; assay: Nrf2- and redox state-related enzyme activities and metabolites in BxPC-3 cells growing in vivo; design: species or system human; conditions: BxPC-3, in vivo +Pter, day 35
Description: To measure enzyme activity, isolated tumor cells were homogenized in 0.1 M phosphate buffer (pH 7.2) at 4° C. GCL and GSS activities were measured as described previously (Obrador, E. et al. Hepatology 35, 74-81 (2002)). GPX (selenium dependent) activity was measured as described by Flohé and Gunzler (Flohe, L. & Gunzler, W. A. Methods Enzymol 105, 114-121 (1984)) using H2O2 as a substrate. GSR activity was determined as described by Akerboom and Sies (Akerboom, T. P. et al, Bull Eur Physiopathol Respir 17 Suppl, 221-227 (1981)). GGT activity was measured as described previously (Obrador, E. et al. Hepatology 35, 74-81 (2002)). GST activity was measured using an assay kit from Sigma. TXNRD activity, defined by the concentration of sodium-lipoate (disulfide) reduced to dehydrolipoate (dithiol) per milligram protein, was measured as previously described (Javvadi, P. et al. Cancer Res 70, 1941-1950 (2010)). SOD activity was measured as described by Flohé and Otting (Flohe, L. & Otting, F. Methods Enzymol 105, 93-104 (1984).) using 2 mM cyanide in the assay medium to distinguish mangano-type enzyme (SOD2) from the cuprozinc type (SOD1). CAT activity was analyzed as described by Aebi (Aebi, H. Methods Enzymol 105, 121-126 (1984)). NOX activity was measured by chemiluminescence following the methodology of Wind et al. (Wind, S. et al. Comparative pharmacology of chemically distinct NADPH oxidase inhibitors. Br J Pharmacol 161, 885-898 (2010)). Protein concentration was determined with the Pierce BCA protein assay (Fisher Scientific, Waltham, Mass.). […]
Quantitative measurement of H2O2 and flow cytometry determination of O2^⋅− generation were performed as previously described (Benlloch, M. et al. J Biol Chem 281, 69-79 (2006)).
GSH, GSSG, NADP^+ and NADPH Determination.
GSH and GSSG were determined, following procedures previously described (Obrador, E. et al. PLoS One 9, e96466 (2014)), by LC/MS using the same equipment described above for pterostilbene determination. Cell processing was performed according to published methodology, where rapid N-ethylmaleimide derivatization was used to prevent GSH auto-oxidation (Asensi, M. et al. Anal Biochem 217, 323-328 (1994)). NADP^+ and NADPH were quantitated using an assay kit from Sigma (St. Louis, Mo.).

[5] = Pter and metabolite levels in plasma, tumor, brain and pituitary after i.v. administration (LC-MS/MS); type: in vivo, mice; conditions: for highest concentration in plasma / highest concentration in tumors: 5 min after i.v. 30 mg Pter/kg
Description: Determination of Pter and its Metabolites by High-Pressure Liquid Chromatography and Mass Spectrometry (LC-MS/MS).
LC-MS/MS was carried out, as previously described (Ferrer, P. et al. Neoplasia 7, 37-47 (2005); Azzolini, M. et al. Mol Nutr Food Res 58, 2122-2132 (2014)) in detail, using a TSQ Vantage™ Triple Quadrupole Mass Spectrometer (Thermo Scientific, Waltham, Mass.) equipped with a Shimadzu LC-10ADvp. pump and a SLC-10Avp. controller system with a SIL-10ADvp. autoinjector.

[6] = tested on: A549 human lung cancer; conditions: 20 μM Pter, 24 h, in vitro; cited from earlier work

For `COc1cc(/C=C/c2ccc(O)cc2)cc(OC)c1` [Pter, trans-3,5-dimethoxy-4′-hydroxystilbene], the Tumor vol. ([1]; MeWo-RFP, 35 days after inoculation, Pter 30 mg/kg i.v. every 48 h and/or CRC infusion 0.3 μg/h) was 167 ± 53* mm^3, the “inhibition of tumor growth” value ([1]; Mewo, day 42, 30 mg Pter/kg i.v. every 48 h, vs controls) was roughly 65% and the Tumor vol. [2] was 523 ± 168* mm^3. It also gave a Tumor vol. [3] of 758 ± 214 mm^3, a CAT [4] of 1.0 ± 0.2 mU/10^6 cells and a G6PDH [4] of 264 ± 56 mU/10^6 cells. It also gave a GCL [4] of 36 ± 15 mU/10^6 cells, a GGT [4] of 19.7 ± 3.7 mU/10^6 cells and a GPX [4] of 9.2 ± 2.0 mU/10^6 cells. It also gave a GSH [4] of 3.7 ± 1.1 nmol/10^6 cells, a GSH/GSSG [4] of 12 ± 4 and a GSR [4] of 2.3 ± 0.7 mU/10^6 cells. For the same compound, the GSS [4] was 4.0 ± 1.3 mU/10^6 cells, the GSSG [4] was 0.3 ± 0.1 nmol/10^6 cells and the GST [4] was 3.2 ± 1.0 mU/10^6 cells. The H2O2 [4] was 1.3 ± 0.2 nmol/10^6 cells × min, the IDH [4] was 1.7 ± 0.5 U/10^6 cells and the ME [4] was 40 ± 7 mU/10^6 cells. For the same compound, the NADPH [4] was 0.03 ± 0.01 nmol/mg prot, the “NADPH/NADP^+” value [4] was 0.6 ± 0.2 and the “NADP^+” value [4] was 0.05 ± 0.005 nmol/mg prot. For the same compound, the NOX [4] was 89 ± 25 R.L.U./10^6 cells, the “O2′−” value [4] was 5.9 ± 1.7 ΔFL1, a.u and the SOD1 [4] was 0.1 ± 0.05 U/10^6 cells. The SOD2 [4] was 0.05 ± 0.02 U/10^6 cells, the TXN [4] was 0.2 ± 0.1 μg/10^6 cells and the TXNRD [4] was 0.8 ± 0.2 U/10^6 cells. For the same compound, the “approx. mean level in the hypophysis” value ([5]; 10-30 min after i.v. 30 mg/kg) was roughly 15 µM, the “level in whole brain” value ([5]; 60 min after i.v. 30 mg/kg) was “approx. 1 nmol/g” and the “level in whole brain” value ([5]; 120 min after i.v. 30 mg/kg) was “non-detectable levels”. For the same compound, the “highest concentration in plasma” value ([5]; A2058-bearing mice) was 112 ± 17 µM, the “highest concentration in tumors” value ([5]; A2058 tumors) was 28 ± 7 µM and the “highest concentration in tumors” value ([5]; MeWo tumors) was 33 ± 7 µM. For the same compound, the “highest concentration in plasma” value ([5]; MeWo-bearing mice) was 116 ± 23 µM, the “highest concentration in tumors” value ([5]; MelJuso tumors) was 25 ± 7 µM and the “highest concentration in plasma” value ([5]; MelJuso-bearing mice) was 98 ± 13 µM. The “levels in plasma after the last time point” value ([5]; after 480 min) was “undetectable”, the “levels in the hypophysis compared with the whole brain” value ([5]; after i.v. 30 mg/kg) was “significantly higher” and the “lowest concentration in plasma” value ([5]; at 240-480 min after i.v. 30 mg Pter/kg) was “approx. 1 μM”. For the same compound, the half-life ([5]; female, nu/nu nude, mouse, melanoma tumor, iv, 30 mg/kg, melanoma tumors, 30 mg Pter/kg i.v., read-out: half-life in the melanoma tumors) was 36 to 40 min, the half-life ([5]; female, nu/nu nude, mouse, plasma, iv, 30 mg/kg, B16-F1-bearing mice, Pter 30 mg/kg i.v., read-out: half-life in circulating plasma) was 61.2 min and the half-life ([5]; female, nu/nu nude, mouse, plasma, iv, 30 mg/kg, melanoma-bearing mice, 30 mg Pter/kg i.v., read-out: half-life in circulating plasma) was 70 to 73 min. For the same compound, the half-life ([5]; female, nu/nu nude, mouse, tumor (B16-F1), iv, 30 mg/kg, B16-F1 tumors, Pter 30 mg/kg i.v., read-out: half-life in the tumors) was 29.3 min, the concentration at 180 min ([5]; female, nu/nu nude, mouse, tumor, iv, 30 mg/kg, at 180 min after i.v. 30 mg Pter/kg, read-out: lowest concentration in tumors) was roughly 1000 nM and the “approximate mean concentration within the tumor” value ([5]; first hour after i.v. 30 mg Pter/kg) was roughly 15 µM. The “main Pter-derived metabolite generated in vivo (plasma)” value ([5]; i.v. 30 mg Pter/kg) was “pterostilbene-4′-sulfate (Pter-S)” and the “decrease in tumor cell viability” value [6] was roughly 40%.
